The values that follow are results of earlier work, collected in patent US6335015B1, “Method of the prophylactic treatment of mastitis” (Astacarotene AB, priority 1997, dated 2002).

One data set relates to sows. As to conditions: feed supplemented with astaxanthin prior to parturition and during lactation.
The conditions of data set [1]: biological tests.

As to `CC1=C(/C=C/C(C)=C/C=C/C(C)=C/C=C/C=C(C)/C=C/C=C(C)/C=C/C2=C(C)C(=O)[C@@H](O)CC2(C)C)C(C)(C)C[C@H](O)C1=O` [astaxanthin], the piglets born alive result in the data set with sows is “more piglets born alive”. The “antioxidative properties compared to other carotenoids” value in data set [1] is given as “clearly the best antioxidative properties”.
